This note sets out measurements from patent publication US20150258101A1 (Proximagen Limited, priority 2014, published 2015).

In the experiment the target is T1, purified recombinantly expressed human SSAO (Homo sapiens, UniProt Q16853).
T1 construct: made in house
T1 sequence (Q16853 1-763): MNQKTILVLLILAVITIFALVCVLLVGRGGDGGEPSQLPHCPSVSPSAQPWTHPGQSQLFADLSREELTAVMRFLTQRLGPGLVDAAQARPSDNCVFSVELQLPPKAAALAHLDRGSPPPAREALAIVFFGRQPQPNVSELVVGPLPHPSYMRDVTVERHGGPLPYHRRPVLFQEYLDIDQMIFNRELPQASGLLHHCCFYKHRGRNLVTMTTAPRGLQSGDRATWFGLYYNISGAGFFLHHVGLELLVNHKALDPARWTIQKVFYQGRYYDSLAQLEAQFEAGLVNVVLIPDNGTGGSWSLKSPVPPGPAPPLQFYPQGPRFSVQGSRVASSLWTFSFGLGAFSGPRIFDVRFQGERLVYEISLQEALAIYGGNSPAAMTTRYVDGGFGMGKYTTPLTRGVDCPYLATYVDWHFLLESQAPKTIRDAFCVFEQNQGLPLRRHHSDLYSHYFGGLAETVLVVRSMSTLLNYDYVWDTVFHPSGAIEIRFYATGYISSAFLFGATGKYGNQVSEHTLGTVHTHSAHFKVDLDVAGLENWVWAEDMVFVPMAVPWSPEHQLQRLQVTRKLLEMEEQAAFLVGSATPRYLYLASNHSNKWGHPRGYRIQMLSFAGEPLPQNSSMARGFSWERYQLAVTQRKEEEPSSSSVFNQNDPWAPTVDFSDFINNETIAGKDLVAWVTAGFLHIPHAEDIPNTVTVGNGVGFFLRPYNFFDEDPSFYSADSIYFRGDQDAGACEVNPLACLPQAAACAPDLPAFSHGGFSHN
Put plainly: SSAO enzyme inhibition assay (benzylamine substrate; hydrogen peroxide/HRP-coupled or 14C aldehyde detection). The conditions noted are these: SSAO inhibitory activity, RT. The format is biochemical. As to the method: All primary assays were performed at RT. with purified recombinantly expressed human SSAO. Enzyme was prepared essentially as described in Öhman et al. (Protein Expression and Purification 46 (2006) 321-331). In addition, secondary- and selectivity assays were performed using SSAO prepared from various tissues or purified rat recombinant SSAO. The enzyme activity was assayed with benzylamine as substrate by measuring either benzaldehyde production, using ^14C-labeled substrate, or by utilizing the production of hydrogen peroxide in a horseradish peroxidase (HRP) coupled reaction. Briefly, test compounds were dissolved in dimethyl sulfoxide (DMSO) to a concentration of 10 mM. Dose-response measurements were assayed by either creating 1:10 serial dilutions in DMSO to produce a 7 point curve or by making 1:3 serial dilutions in DMSO to produce 11 point curves.
In a horseradish peroxidase (HRP) coupled reaction, hydrogen peroxide oxidation of 10-acetyl-3,7-dihydroxyphenoxazine produced resorufin, which is a highly fluorescent compound (Zhout and Panchuk-Voloshina. Analytical Biochemistry 253 (1997) 169-174; Amplex® Red Hydrogen Peroxide/peroxidase Assay kit, Invitrogen A22188). Enzyme and compounds in 50 mM sodium phosphate, pH 7.4 were set to pre-incubate in flat-bottomed microtiter plates for approximately 15 min before initiating the reaction by addition of a mixture of HRP, benzylamine and Amplex reagent. Benzylamine concentration was fixed at a concentration corresponding to the Michaelis constant, determined using standard procedures. Fluorescence intensity was then measured at several time points during 1-2 h, exciting at 544 nm and reading the emission at 590 nm. For the human SSAO assay final concentrations of the reagents in the assay wells were: SSAO enzyme 1 ug/ml, benzylamine 100 uM, Amplex reagent 20 uM, HRP 0.1 U/mL and varying concentrations of test compound. The inhibition was measured as % decrease of the signal compared to a control without inhibitor (only diluted DMSO). The background signal from a sample containing no SSAO enzyme was subtracted from all data points. Data was fitted to a four parameter logistic model and IC50 values were calculated using the Graph Pad Prism 4 or XLfit 4 programs.
SSAO activity was assayed using 14C-labeled benzylamine and analysed by measuring radioactive benzaldehyde. In a white 96-well optiplate (Packard), 20 uL of diluted test compound was pre-incubated at room temperature with 20 uL SSAO enzyme for approximately 15 min with continuous agitation. All dilutions were made with PBS. The reaction was initiated by adding 20 uL of the benzylamine substrate solution containing [7-14C] Benzylamine hydrochloride (CFA589, GE Healthcare). The plate was incubated for 1 h as above after which the reaction was stopped by acidification (10 uL 1M aq HCl). Then 90 uL Micro Scint-E solution (Perkin-Elmer) was added to each well and the plate was continuously mixed for 15 min. Phase separation occurred instantly and activity was read in a Topcount scintillation counter (Perkin-Elmer). In the final reaction well, the human recombinant SSAO concentration was 10 ug/ml. In order to optimize sensitivity, the substrate concentration was decreased as compared to the HRP coupled assay in order to get a higher fraction of radioactive product. In the human SSAO assay, benzylamine concentration was 40 uM (0.2 uCi/mL). Data was analysed as above.

By IC50 is commonly meant the concentration that inhibits the measured activity by half. Turning to `O=C(c1ccc(-c2nc3ccncc3n2-c2ccc(Cl)cc2)cn1)N1CCOCC1` [Example 6, 4-({5-[3-(4-Chlorophenyl)-3H-imidazo[4,5-c]pyridin-2-yl]pyridin-2-yl}carbonyl) morpholine], the 50% inhibitory concentration (IC50) fell in the range of 200 to 1200 nM.

On to `CN1CCN(Cc2cccc(-c3nc4ccncc4n3-c3ccc(Cl)cc3)c2)CC1` [Example 45, 1-({3-[3-(4-Chlorophenyl)-3H-imidazo[4,5-c]pyridin-2-yl]phenyl}methyl)-4-methylpiperazine; formic acid], for which the IC50 was 200 to 1200 nM.

In the case of `Fc1ccc(-n2c(-c3ccc(N4CCOCC4)nc3)nc3ccncc32)c(F)c1` [Example 41, 4-{5-[3-(2,4-Difluorophenyl)-3H-imidazo[4,5-c]pyridin-2-yl]pyridin-2-yl}morpholine], the IC50 was less than 50 nM.

Take `Fc1ccc(-n2c(-c3cnc(N4CCCOCC4)nc3)nc3ccncc32)cc1` [Example 25, 4-{5-[3-(4-Fluorophenyl)-3H-imidazo[4,5-c]pyridin-2-yl]pyrimidin-2-yl}-1,4-oxazepane]: the concentration for half-maximal inhibition (IC50) is less than 50 nM.

`Clc1ccc(-n2c(-c3cnc(N4CCOCC4)cn3)nc3ccncc32)cc1` [Example 5, 4-{5-[3-(4-Chlorophenyl)-3H-imidazo[4,5-c]pyridin-2-yl]pyrazin-2-yl}morpholine]: the IC50 was in the range of 50 to 200 nM.

With `Cc1ccc(-n2c(-c3cnc(NCCOC(C)C)nc3)nc3ccncc32)cc1` [Example 39, 5-[3-(4-Methylphenyl)-3H-imidazo[4,5-c]pyridin-2-yl]-N-[2-(propan-2-yloxy)ethyl] pyrimidin-2-amine], the IC50 is less than 50 nM.

As for `c1cc2nc(-c3cnc(N4CCOCC4)nc3)n(-c3ccc(C4CC4)cc3)c2cn1` [Example 96, 4-{5-[3-(4-Cyclopropylphenyl)-3H-imidazo[4,5-c]pyridin-2-yl]pyrimidin-2-yl}morpholine], the half-inhibitory concentration (IC50) is 50 to 200 nM.

With `Cc1cc(F)ccc1-n1c(-c2ccc(N3CCOCC3)nc2)nc2ccncc21` [Example 62, 4-{5-[3-(4-Fluoro-2-methylphenyl)-3H-imidazo[4,5-c]pyridin-2-yl]pyridin-2-yl}morpholine], the IC50 fell in the range of 50 to 200 nM.

`Cn1ccc(-c2cc3ccncc3n2-c2ccc(Cl)cc2)cc1=O` [Example 143, 4-[1-(4-Chlorophenyl)-1H-pyrrolo[2,3-c]pyridin-2-yl]-1-methyl-1,2-dihydropyridin-2-one]: the concentration for half-maximal inhibition (IC50) was less than 50 nM.

Turning to `Cc1ccc(-n2c(-c3cnc(N4C[C@@H](C)O[C@@H](C)C4)nc3)nc3ccncc32)cn1` [Example 118, (2R,6S)-2,6-Dimethyl-4-{5-[3-(6-methylpyridin-3-yl)-3H-imidazo[4,5-c]pyridin-2-yl]pyrimidin-2-yl}morpholine], the IC50 was less than 50 nM.

As for `COc1nc(N2CCOCC2)ccc1-c1nc2ccncc2n1-c1ccc(F)cc1` [Example 28, 4-{5-[3-(4-Fluorophenyl)-3H-imidazo[4,5-c]pyridin-2-yl]-6-methoxypyridin-2-yl} morpholine], the IC50 fell in the range of 50 to 200 nM.

Turning to `O=c1cc(-c2nc3ccncc3n2-c2ccc(Cl)cc2F)ccn1C1CC1` [Example 116, 4-[3-(4-Chloro-2-fluorophenyl)-3H-imidazo[4,5-c]pyridin-2-yl]-1-cyclopropyl-1,2-dihydropyridin-2-one], the IC50 was 50 to 200 nM.

In the case of `Fc1ccc(-n2c(-c3cnc(N4CCOCC4)nc3)nc3ccncc32)nc1` [Example 76, 4-{5-[3-(5-Fluoropyridin-2-yl)-3H-imidazo[4,5-c]pyridin-2-yl]pyrimidin-2-yl}morpholine], the IC50 was 50 to 200 nM.

As to `Cn1cc(-c2nc3ccncc3n2-c2ccc(Cl)cc2)ccc1=O` [Example 33, 5-[3-(4-Chlorophenyl)-3H-imidazo[4,5-c]pyridin-2-yl]-1-methyl-1,2-dihydropyridin-2-one], the IC50 is 200 to 1200 nM.

In the case of `COCCCNc1ncc(-c2nc3ccncc3n2-c2ccc(C)cc2)cn1` [Example 37, N-(3-Methoxypropyl)-5-[3-(4-methylphenyl)-3H-imidazo [4,5-c]pyridin-2-yl]pyrimidin-2-amine], the half-inhibitory concentration (IC50) was less than 50 nM.

As for `Cc1nc(C)c(-c2cc3ccncc3n2-c2ccc(Cl)cc2)[nH]1` [Example 126, 5-[1-(4-Chlorophenyl)-1H-pyrrolo[2,3-c]pyridin-2-yl]-2,4-dimethyl-1H-imidazole], the IC50 is less than 50 nM.

On to `Cc1cnccc1-c1cc2ccncc2n1-c1ccc(Cl)cc1` [Example 154, 4-[1-(4-Chlorophenyl)-1H-pyrrolo[2,3-c]pyridin-2-yl]-3-methylpyridine], for which the IC50 is less than 50 nM.

For `NC(=O)N1CCN(c2ncc(-c3nc4ccncc4n3-c3ccc(Cl)cc3)o2)CC1` [Example 93, 4-{5-[3-(4-Chlorophenyl)-3H-imidazo[4,5-c]pyridin-2-yl]-1,3-oxazol-2-yl}piperazine-1-carboxamide], the 50% inhibitory concentration (IC50) fell in the range of 50 to 200 nM.

As to `Cc1ccc(-n2c(-c3cnc(NC4CCOCC4)nc3)nc3ccncc32)cc1` [Example 119, 5-[3-(4-Methylphenyl)-3H-imidazo[4,5-c]pyridin-2-yl]-N-(oxan-4-yl)pyrimidin-2-amine; bis(trifluoroacetic acid)], the concentration for half-maximal inhibition (IC50) lay within 50 to 200 nM.

`Cc1ccc(-n2c(-c3ccc(N4C[C@@H](C)O[C@@H](C)C4)nc3)nc3ccncc32)cn1` [Example 103, (2R,6S)-2,6-Dimethyl-4-{5-[3-(6-methylpyridin-3-yl)-3H-imidazo[4,5-c]pyridin-2-yl]pyridin-2-yl}morpholine; tris(trifluoroacetic acid)]: the half-maximal inhibitory concentration (IC50) fell in the range of 50 to 200 nM.

In the case of `Clc1ccc(-n2c(-c3cccnc3)nc3ccncc32)cc1` [Example 1, 3-[3-(4-Chlorophenyl)-3H-imidazo[4,5-c]pyridin-2-yl]pyridine], the half-inhibitory concentration (IC50) is 200 to 1200 nM.

Consider `Cc1cc(N2CCOCC2)ncc1-c1nc2ccncc2n1-c1ccc(Cl)cc1F` [Example 22, 4-{5-[3-(4-Chloro-2-fluorophenyl)-3H-imidazo [4,5-c]pyridin-2-yl]-4-methylpyridin-2-yl}morpholine], for which the 50% inhibitory concentration (IC50) is less than 50 nM.

On to `Cc1ccc(-n2c(-c3cnc(N4C[C@@H](C)O[C@@H](C)C4)nc3)nc3ccncc32)nc1` [Example 36, (2R,6S)-2,6-Dimethyl-4-{5-[3-(5-methylpyridin-2-yl)-3H-imidazo[4,5-c]pyridin-2-yl]pyrimidin-2-yl}morpholine], for which the half-inhibitory concentration (IC50) is 50 to 200 nM.

For the molecule `Cc1cc(NC2CCOCC2)ncc1-c1nc2ccncc2n1-c1ccc(F)cc1` [Example 100, 5-[3-(4-Fluorophenyl)-3H-imidazo[4,5-c]pyridin-2-yl]-4-methyl-N-(oxan-4-yl)pyridin-2-amine], the concentration for half-maximal inhibition (IC50) lay within 200 to 1200 nM.

Turning to `Fc1ccc(-n2c(-c3ccc(OC4CCOCC4)nc3)nc3ccncc32)cc1` [Example 113, 5-[3-(4-Fluorophenyl)-3H-imidazo[4,5-c]pyridin-2-yl]-2-(oxan-4-yloxy)pyridine], the concentration for half-maximal inhibition (IC50) was less than 50 nM.

`Clc1ccc(-n2c(-c3ccc(-n4cccn4)nc3)cc3ccncc32)cc1` [Example 151, 5-[1-(4-Chlorophenyl)-1H-pyrrolo[2,3-c]pyridin-2-yl]-2-(1H-pyrazol-1-yl)pyridine; bis(trifluoroacetic acid)]: the half-inhibitory concentration (IC50) was 50 to 200 nM.
